Reference: ChEMBL document CHEMBL4130597 (ACS Med Chem Lett, 2017)

How the values were obtained:
Protease = Protease (Human immunodeficiency virus 1, UniProt Q9YQ12); assay: Inhibition of HIV1 protease expressed in Escherichia coli using Val-Ser-Gln-Asn-(beta-naphtyl)Ala-Pro-Ile-Val as substrate preincubated for 30 mins followed by substrate addition measured after 1 hr by mass spectrometric method
[1] = test system: Human immunodeficiency virus 1; assay: Antiviral activity against HIV1 infected in GFP expressing human MT4 cells assessed as inhibition of viral replication after 24 hrs in presence of 50% normal human serum; type: functional, organism-based; conditions: Human immunodeficiency virus 1, MT4, 24 h
[2] = biological target: Protease (Human immunodeficiency virus 1) (UniProt Q9YQ12); assay: Potency index, ratio of MK-8718 IC50 to test compound IC50 for HIV1 protease
[3] = test system: Human immunodeficiency virus 1; assay: Potency index, ratio of MK-8718 EC50 to test compound EC50 for HIV1 infected in GFP expressing human MT4 cells assessed as inhibition of viral replication; type: functional

Protease, sequence (Q9YQ12 whole entry): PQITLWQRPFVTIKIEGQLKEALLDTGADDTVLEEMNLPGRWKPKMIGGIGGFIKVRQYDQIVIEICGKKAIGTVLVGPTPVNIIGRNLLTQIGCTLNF
Protease (Human immunodeficiency virus 1), sequence (Q9YQ12 as listed by the source): as the sequence (Q9YQ12 whole entry) above

Row | Structure (SMILES) | EC50 [1] [nM] | also measured
1 | N[C@H](C(=O)Nc1cncc(F)c1CC[C@@H]1CN[C@H](COC(=O)NCC(F)(F)F)CO1)[C@@H](c1ccc(Cl)cc1)c1cc(F)cc(F)c1 | 27 | IC50 (Protease): 0.7 nM
2 | C[C@@H]1CN(S(=O)(=O)c2ccccc2)[C@@H](CCc2c(F)cccc2NC(=O)CC(c2ccc(F)cc2)c2ccc(F)cc2)CN1 | 520 | 
3 | C[C@@H]1CNC[C@H](CCc2c(F)cccc2NC(=O)CC(c2ccc(F)cc2)c2ccc(F)cc2)N1S(=O)(=O)c1ccccc1 | 70 | 
4 | COC(=O)N[C@H](C(=O)N[C@@H](Cc1ccccc1)[C@@H](O)CN(Cc1ccc(-c2ccccn2)cc1)NC(=O)[C@@H](NC(=O)OC)C(C)(C)C)C(C)(C)C [ATAZANAVIR] | 12 | 
5 | O=C(CC(c1ccc(F)cc1)c1ccc(F)cc1)Nc1cccc(F)c1CC[C@H]1CNCCN1S(=O)(=O)c1ccccc1 | 27 | 
6 | O=C(CC(c1ccc(F)cc1)c1ccc(F)cc1)Nc1cccc(F)c1CC[C@@H]1CNCCN1S(=O)(=O)c1ccccc1 | 1200 | 
7 | C[C@H]1CNC[C@H](CCc2c(F)cccc2NC(=O)CC(c2ccc(F)cc2)c2ccc(F)cc2)N1S(=O)(=O)c1ccccc1 | 17 | 
8 | N[C@H](C(=O)Nc1cncc(F)c1CC[C@H]1CN[C@@H]2CCCS(=O)(=O)N1C2)[C@@H](c1ccc(Cl)cc1)c1cc(F)cc(F)c1 | 2.8 | IC50 (Protease): 0.012 nM; Ratio IC50 [2]: 60; Ratio EC50 [3]: 10
9 | CC(C)CN(C[C@@H](O)[C@H](Cc1ccccc1)NC(=O)O[C@H]1CO[C@H]2OCC[C@H]21)S(=O)(=O)c1ccc(N)cc1 | 7 | 
10 | O=C(CC(c1ccc(F)cc1)c1ccc(F)cc1)Nc1cccc(F)c1CC[C@H]1CN[C@@H]2CCCS(=O)(=O)N1C2 | 21 | 
11 | C[C@H]1CN(S(=O)(=O)c2ccccc2)[C@@H](CCc2c(F)cccc2NC(=O)CC(c2ccc(F)cc2)c2ccc(F)cc2)CN1 | 700 | 
